Values belong to the compound of their own block, whether it stands above or below them.
Target: T1, Bcl-2 protein (Recombinant Human Bcl-2 Protein) (Homo sapiens, UniProt P10415)
T1 construct: purchased Novus NBP2-34889
Test: Binding evaluation of mixture library compounds to Bcl-2 using AS-MS (affinity selection mass spectrometry)
Settings: for ASMS ratio (%) n = 1: replicate n = 1; for ASMS ratio (%) n = 1 / ASMS ratio (%) n = 2: ASMS Ratio(%)=(A−C)/B×100; for ASMS ratio (%) n = 2: replicate n = 2
Method: For one well of MICROPLATE, 96-well, PP, V-BOTTOM (Greiner bio-one, 651201), DMSO solutions of 12 mixtures (prepared to approximately 0.58 mM based on calculations from the average molecular weight of each mixture), in each of which 100 compounds are mixed, were each dispensed, and dispensed into a total of 12 wells, where the 12 mixtures are mixAI-B4J-01, mixAI-B1M-01, mixAI-B1K-01, mixAI-B10-01, mixAI-B1A-01, mixAI-B3A-01, mixAI-B21-01, mixAI-B2L-01, mixAI-B2N-01, mixAI-B2A-01, mixAI-B2Q-01, and mixAI-B2R-01 listed in [Table AI-03-B4J-01], [Table AI-03-B1M-01], [Table AI-03-B1K-01], [Table AI-03-B10-01], [Table AI-03-B1A-01], [Table AI-03-B3A-01], [Table AI-03-B2I-01], [Table AI-03-B2L-01], [Table AI-03-B2N-01], [Table AI-03-B2A-01], [Table AI-03-B2Q-01], and [AI-03-B2R-01] shown in Example 6. Using the LABCYTE ECHO® 555 Acoustic Dispensing System (BECKMAN COULTER), 70 nL was collected from each of the 12 wells into one arbitrary well to prepare a sample solution with 1200 compounds in the mixed state (the presence of 1152 compounds had already been identified when prepared in Example 6-5-3). (In the present specification, the mixture collected in this one well is referred to as one library.) Furthermore, a Bcl-2 protein (Novus, NBP2-34889, Recombinant Human Bcl-2 Protein, Lot E60145051) (19.2 μL) that had been prepared in advance to be 20.9 μM using a Tris-HCl buffer (25 mM Tris-HCl pH 7.4, 150 mM NaCl, 0.025% Tween-20, 1 mM DTT) was added to the well in which 1200 compounds (the presence of 1152 compounds had already been identified when prepared in Example 6-5-3) were dispensed (final compound concentration […], final Bcl-2 concentration 20 μM), and the mixture was incubated in the dark at 23° C. for 1 hour. Next, using the 96-well MacroSpin column, P-2 Material (Harvard, 74-5655) that had been swollen, conditioning of the 96-well MacroSpin column was performed three times by centrifugation with 200 μL of an assay buffer (25 mM Tris-HCl pH 7.4, 150 mM NaCl, 0.025% Tween-20, 1 mM DTT), 2000 XG, 4° C., 2 min. Subsequently, 20 μL of the sample after incubation was added to the 96-well MacroSpin column, P-2 Material, that had been conditioned, and SEC treatment was performed by centrifugation at 2000×G for 2 minutes. To the liquid passed from the SEC, 32 μL of a 1:1 mixed solution of acetonitrile and methanol (LC/MS grade, Fujifilm Wako Pure Chemical Corporation) was added, the mixture was centrifuged at 1800×G, 4° C., 5 min, and the supernatant was used as analysis sample ASMS (A), while a sample that had been prepared by the same operations at 1200 compounds/well and to which only the Tris-HCl buffer had been added without the Bcl-2 protein was incubated under the same conditions, no 96-well MacroSpin column treatment was performed, the same organic solvent was added, and the supernatant solution obtained by centrifugation was used as STD (B). Next, a sample that had been prepared by the same operations at 1200 compounds/well and to which only the Tris-HCl buffer had been added without the Bcl-2 protein was incubated under the same conditions, the same 96-well MacroSpin column treatment was performed, the same organic solvent was added, and the supernatant solution obtained by centrifugation was used as BK (C), and measured by reversed phase LC/MS.
Then, analysis of the 1200 compounds was carried out for samples A, B, and C with TraceFinder 5.1 (Thermo Fisher Scientific) and CHANCE Software (in-house), and the ASMS Ratio (%) was calculated according to the following calculation formula.
Calculation formula: ASMS Ratio(%)=(A−C)/B×100

[1] = AS-MS, mixture of 1200 compounds, Bcl-2
[2] = AS-MS on the mixture of 1200 library compounds

T1 sequence (P10415 whole entry): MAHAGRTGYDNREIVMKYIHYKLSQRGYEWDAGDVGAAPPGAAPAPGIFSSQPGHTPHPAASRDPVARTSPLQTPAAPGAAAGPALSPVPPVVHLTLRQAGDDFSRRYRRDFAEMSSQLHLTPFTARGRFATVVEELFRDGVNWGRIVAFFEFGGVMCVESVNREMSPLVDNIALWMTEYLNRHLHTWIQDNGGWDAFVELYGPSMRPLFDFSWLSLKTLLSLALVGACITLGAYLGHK

Compound: 6-[4-[[4-(5-Ethoxypyridin-3-yl)thiophen-2-yl]methyl]piperazin-1-yl]-N-propylpyridazine-3-carboxamide [B1M051-01]
ASMS ratio (%) n = 1 [1]: 0.7% | ASMS ratio (%) n = 2 [1]: 1.9%

Compound: 4-[4-[4-(3-Ethoxyphenyl)thiophene-2-carbonyl]piperazin-1-yl]-N-propylbenzamide [B1M083-01]
ASMS ratio (%) n = 1 [2]: 0.0% | ASMS ratio (%) n = 2 [2]: −0.3%

Compound: CCOc1cccc(-c2cc(C(=O)N3CCN(c4ccc(C(=O)N(CC)CC)nn4)CC3)cc(C(F)(F)F)c2)c1 [B4J017-01, 6-[4-[3-(3-Ethoxyphenyl)-5-(trifluoromethyl)benzoyl]piperazin-1-yl]-N,N-diethylpyridazine-3-carboxamide]
ASMS ratio (%) n = 1 [2]: −0.3% | ASMS ratio (%) n = 2 [2]: −0.5%

Compound: CCOc1cccc(-c2cc(CN3CCN(c4ccc(C(=O)Nc5ccc(OC)cc5)nn4)CC3)cc(C(F)(F)F)c2)c1 [B1O087-01]
ASMS ratio (%) n = 1 [2]: 2.2% | ASMS ratio (%) n = 2 [2]: −0.5%

Compound: CCOc1cccc(-c2ccc(CN3CCN(c4ccc(C(=O)Nc5ccc(OC)cc5)nn4)CC3)c3ccccc23)c1 [B1O091-01]
ASMS ratio (%) n = 1 [2]: 4.5% | ASMS ratio (%) n = 2 [2]: 2.2%

Compound: CCOc1cccc(-c2ccc(CN3CCN(c4ccc(C(=O)NCC56CC7CC(CC(C7)C5)C6)cc4)CC3)c3ccccc23)c1 [B1A065-01, N-(1-Adamantylmethyl)-4-[4-[[4-(3-ethoxyphenyl)naphthalen-1-yl]methyl]piperazin-1-yl]benzamide]
ASMS ratio (%) n = 1 [1]: −32.6% | ASMS ratio (%) n = 2 [1]: −10.4%

Compound: CCOc1cccc(C#Cc2ccccc2C(=O)N2CCN(c3ccc(C(=O)N(CC)CC)cc3)CC2)c1 [B4J029-01, 4-[4-[2-[2-(3-Ethoxyphenyl)ethynyl]benzoyl]piperazin-1-yl]-N,N-diethylbenzamide]
ASMS ratio (%) n = 1 [2]: 0.0% | ASMS ratio (%) n = 2 [2]: 0.0%

Compound: CCOc1cccc(-c2ccc(CN3CCN(c4ccc(C(=O)NS(=O)(=O)c5ccc(NCCSc6ccccc6)c(C(F)(F)F)c5)cc4)CC3)c3ccccc23)c1 [B2R065-01]
ASMS ratio (%) (n = 1): 3.8% | ASMS ratio (%) (n = 2): 0.3%

Compound: CCOc1cccc(C#Cc2ccccc2CN2CCN(c3ccc(C(=O)N(C)CC45CC6CC(CC(C6)C4)C5)cc3)CC2)c1 [B3A069-01, N-(1-Adamantylmethyl)-4-[4-[[2-[2-(3-ethoxyphenyl)ethynyl]phenyl]methyl]piperazin-1-yl]-N-methylbenzamide]
ASMS ratio (%) n = 2 [2]: 12872.1%

Compound: CCOc1cccc(-c2cnn(-c3cc(C(=O)N4CCN(c5ccc(C(=O)Nc6ccc(OC)cc6)nn5)CC4)cc(C(F)(F)F)c3)c2)c1 [B1O021-01, 6-[4-[3-[4-(3-Ethoxyphenyl)pyrazol-1-yl]-5-(trifluoromethyl)benzoyl]piperazin-1-yl]-N-(4-methoxyphenyl)pyridazine-3-carboxamide]
ASMS ratio (%) n = 1 [2]: 2.9% | ASMS ratio (%) n = 2 [2]: −1.2%

Continued, values first:

ASMS ratio (%) (n = 1): 0.0% | ASMS ratio (%) (n = 2): 0.0%
Compound: CCOc1cccc(-c2ccc(CN3CCN(c4ccc(C(=O)NS(C)(=O)=O)nn4)CC3)cc2F)c1 [B2I077-01, 6-[4-[[4-(3-Ethoxyphenyl)-3-fluorophenyl]methyl]piperazin-1-yl]-N-methylsulfonylpyridazine-3-carboxamide]

ASMS ratio (%) n = 1 (AS-MS, mixture library, Bcl-2): 6.5% | ASMS ratio (%) n = 2 (AS-MS, mixture library, Bcl-2): −2.9%
Compound: CCOc1cccc(-c2ccccc2CN2CCN(c3ccc(C(=O)NS(=O)(=O)CC45CC6CC(CC(C6)C4)C5)cc3)CC2)c1 [B2A045-01, N-(1-Adamantylmethylsulfonyl)-4-[4-[[2-(3-ethoxyphenyl)phenyl]methyl]piperazin-1-yl]benzamide]

ASMS ratio (%) n = 2 [1]: 0.0%
Compound: CCOc1cncc(-c2cc(CN3CCN(c4ccc(C(=O)NCC56CC7CC(CC(C7)C5)C6)cc4)CC3)cc(OC(C)C)c2)c1 [B1A058-01, N-(1-Adamantylmethyl)-4-[4-[[3-(5-ethoxypyridin-3-yl)-5-propan-2-yloxyphenyl]methyl]piperazin-1-yl]benzamide]

ASMS ratio (%) (n = 1): 0.0% | ASMS ratio (%) (n = 2): −15.5%
Compound: CCOc1cccc(-c2csc(C(=O)N3CCN(c4ccc(C(=O)NS(=O)(=O)c5ccc(NCCSc6ccccc6)c(C(F)(F)F)c5)cc4)CC3)c2)c1 [B2R023-01, 4-[4-[4-(3-Ethoxyphenyl)thiophene-2-carbonyl]piperazin-1-yl]-N-[4-(2-phenylsulfanylethylamino)-3-(trifluoromethyl)phenyl]sulfonylbenzamide]

ASMS ratio (%) (n = 1): 0.0% | ASMS ratio (%) (n = 2): 0.0%
Compound: CCOc1cncc(-c2ccc(CN3CCN(c4ccc(C(=O)NS(=O)(=O)CCC(F)(F)F)nn4)CC3)c(OC)c2)c1 [B2N080-01]

ASMS ratio (%) n = 1 [1]: 0.0% | ASMS ratio (%) n = 2 [1]: 0.0%
Compound: CCOc1cncc(C#Cc2ccccc2CN2CCN(c3ccc(C(=O)NCC45CC6CC(CC(C6)C4)C5)cc3)CC2)c1 [B1A070-01, N-(1-Adamantylmethyl)-4-[4-[[2-[2-(5-ethoxypyridin-3-yl)ethynyl]phenyl]methyl]piperazin-1-yl]benzamide]

ASMS ratio (%) (n = 1): 8.0% | ASMS ratio (%) (n = 2): 0.0%
Compound: CCOc1cccc(-c2csc(CN3CCN(c4ccc(C(=O)NS(=O)(=O)c5ccc(NCCSc6ccccc6)c(C(F)(F)F)c5)cc4)CC3)c2)c1 [B2R067-01, 4-[4-[[4-(3-Ethoxyphenyl)thiophen-2-yl]methyl]piperazin-1-yl]-N-[4-(2-phenylsulfanylethylamino)-3-(trifluoromethyl)phenyl]sulfonylbenzamide]

ASMS ratio (%) n = 1 [1]: 1.0% | ASMS ratio (%) n = 2 [1]: −2.6%
Compound: CCOc1cccc(-c2cc(CN3CCN(c4ccc(C(=O)NCC(F)(F)F)cc4)CC3)cc(OC(C)C)c2)c1 [B1K057-01, 4-[4-[[3-(3-Ethoxyphenyl)-5-propan-2-yloxyphenyl]methyl]piperazin-1-yl]-N-(2,2,2-trifluoroethyl)benzamide]

ASMS ratio (%) (n = 1): 3.2% | ASMS ratio (%) (n = 2): −0.8%
Compound: CCOc1cncc(-c2ccc(C(=O)N3CCN(c4ccc(C(=O)NS(=O)(=O)c5ccc(NCCSc6ccccc6)c(C(F)(F)F)c5)cc4)CC3)c3ccccc23)c1 [B2R036-01, 4-[4-[4-(5-Ethoxypyridin-3-yl)naphthalene-1-carbonyl]piperazin-1-yl]-N-[4-(2-phenylsulfanylethylamino)-3-(trifluoromethyl)phenyl]sulfonylbenzamide]

ASMS ratio (%) (n = 1): 0.0% | ASMS ratio (%) (n = 2): 0.0%
Compound: CCOc1cncc(-c2ccc(C(C)N3CCN(c4ccc(C(=O)NS(C)(=O)=O)cc4)CC3)cc2)c1 (stereo not shown) [B2I098-01, 4-[4-[1-[4-(5-Ethoxypyridin-3-yl)phenyl]ethyl]piperazin-1-yl]-N-methylsulfonylbenzamide]

ASMS ratio (%) (n = 1): 0.0% | ASMS ratio (%) (n = 2): 0.0%
Compound: CCOc1cccc(-c2ccc(C(=O)N3CCN(c4ccc(C(=O)NS(=O)(=O)CCC(F)(F)F)cc4)CC3)cc2C)c1 [B2N025-01, 4-[4-[4-(3-Ethoxyphenyl)-3-methylbenzoyl]piperazin-1-yl]-N-(3,3,3-trifluoropropylsulfonyl)benzamide]

Reference: US20240132431A1, “METHOD FOR ALKYLATING ACIDIC FUNCTIONAL GROUP” (Chugai Seiyaku Kabushiki Kaisha, priority 2021, published 2024)
